Laboratory results: patent publication US20230241088A1, “COMPOSITION FOR PREVENTING OR TREATING LUNG CANCER COMPRISING ORTHO-TOPOLIN RIBOSIDE AS ACTIVE INGREDIENT” (CHUNG-ANG UNIVERSITY INDUSTRY-ACADEMY COOPERATION FOUNDATION, priority 2022, published 2023)

How the values were obtained:
Assay type in all cases: cell-based, Human
[1] = system: NSCLC cell lines (A549, H1437, H2087, H522, and HCC827); experiment: GC-MS and nanoESI-MS metabolite and lipid profiling of NSCLC cells
Description: The cells were seeded at a density of 2×10^5 cells/mL in a 6-well plate and treated with oTR (10 μM) for 48 hours. The cells were pooled from 3 wells in the 6-well plate and centrifuged at 1,000×g at 4° C. for 2 minutes. The cells were frozen in liquid nitrogen and stored at −70° C. until analysis. The cells were lysed by two freeze-thaw cycles using liquid nitrogen and 37° C. water bath. Protein concentrations were determined using the Bio-Rad protein assay kit (Thermo Scientific, Rockford, Ill.). Bovine serum albumin (BSA) was used as a standard for normalization. The cells were freeze-dried and stored at −70° C. until additional analysis.
To perform metabolite and lipid analyses of the extracted samples of NSCLC cells and xenograft tumor tissues, GC-MS and nanoESI-MS analyses were conducted according to a previously described method. For quality control (QC), the equal volume of mixture was taken from each sample to be analyzed.
Raw data files of the lipid analysis (*.raw) were converted into *.mzXML format using the Proteo Wizard MSConvert software. The metabolite and lipid mass spectra were converted using the Expressionist® MSX software (version 2013.0.39, Genedata, Basel, Switzerland) for data processing. The data obtained from NSCLC cells were divided by the peak intensity of the internal standard and total protein content for normalization. The data obtained from the NSCLC xenograft model were divided by the peak intensity of the internal standard for normalization. The data obtained thereby were used for fold-change analysis using the MetaboAnalyst (version 5.0; http://www.metaboanalyst.ca). SPSS software (version 26, IBM, Somers, N.Y.) was used for significance examination for the results, and identification was conducted by Student's t-test and Mann-Whitney test. All data were mean-centered and pretreated to Pareto scaling for principal component analysis (PCA) and orthogonal partial least-squares discriminant analysis (OPLS-DA), performed using the SIMCA-P software (version 15.0.2, Sartorius Stedim Data Analytics AB, Umea, Sweden). Cross validations and permutation tests (100 times) were performed to evaluate the goodness of fit value and predictability of the OPLS-DA model. Volcano plots were generated using the GraphPad Prism 9.0.
oTR-induced alterations of metabolic and lipidomic profiles were analyzed using 5 NSCLC cell lines (A549, H1437, H2087, H522, and HCC827) and xenograft tumor tissues by performing GC-MS and nanoESI-MS analyses. The relative changes in identified metabolites and intact lipid species are shown as fold-changes. […]

[2] = system: H522; experiment: MTT cell viability assay, H522; settings: 48 hours
Description: (§1) Human NSCLC cell lines A549, H1437, H2087, H522, and HCC827 were obtained from the Korean Cell Line Bank (KCLB, Seoul, Korea). These cells were cultured in RPMI-1640 medium (Gibco, N.Y., USA) supplemented with 10% FBS (Gibco) and 1% penicillin-streptomycin (HyClone Laboratories, Logan, Utah, USA). All cell lines were cultured under standard conditions (5% CO2, humid environment, 37° C.). A549 cells were seeded at a density of 1×10^4 cells/well and H1437, H2087, H522, HCC827, and MRCS cells at a density of 2×10^4 cells/well in 96-well plates and were cultured until cells reach approximately 70-80% confluency. The NSCLC cells were treated with plant hormones for 48 hours. Stock solution of each plant hormone was diluted with culture medium, wherein concentrations of DMSO, water, methanol, and ethanol in the culture medium were below 1% (v/v). The half-maximal inhibitory concentration (IC50) was calculated using CompuSyn software (ComboSyn Inc., Paramus, N.J., USA).
(§2) The inhibitory effect of plant hormones and their derivatives was investigated on 5 NSCLC cell lines (A549, H1437, H2087, H522, and HCC827). The NSCLC cells were treated with ABA, Cor, ethephon, GR-24, IAA, KR, MJ, N6b, N6i, oTR, and SS-HCS at concentrations of 0.1, 0.5, 1, 5, 10, 50, and 100 μM. Cell viability and IC50 values for 48 hours were investigated by performing the MTT assay.

[3] = system: p-ERK, p-AKT, cleaved caspase-3, LC-III in A549 cells; experiment: Immunoblot analysis of cell lysates; settings: NSCLC cells
Description: The immunoblot analysis was carried out according to a previously described method. A549 cells (4×10^5) were grown to approximately 70-80% confluency and treated with oTR (5, 10, and 50 μM) for 48 hours. The cell lysates and tissue lysates were prepared and subjected to SDS-PAGE for immunoblotting with the respective antibodies. Anti-caspase-3 (9662), anti-p-AKT (4058), and anti-AKT (9272) antibodies were purchased from Cell Signaling Technology (Danvers, Mass., USA). Anti-ERK1/ERK2 (MAB1576) and anti-p-ERK1/ERK2 (AF1018) were purchased from R&D Systems (Minneapolis, Minn., USA). Anti-LC-III (NB100-2331) antibody was purchased from Novus Biologicals (Littleton, Colo., USA). Anti-β-actin (sc-47778) and anti-GAPDH (sc-47724) antibody was purchased from Santa Cruz Biotechnology (Santa Cruz, Calif., USA).

[4] = system: HCC827; experiment: MTT cell viability assay, HCC827; settings: 48 hours
Description: as §1, §2

In the case of `OC[C@H]1O[C@@H](n2cnc3c(NCc4ccccc4O)ncnc32)[C@H](O)[C@@H]1O` [oTR, ortho topolin riboside], the lactate level ([1]; all NSCLC cell lines, oTR 10 μM, 48 hours) is reported as “significantly decreased”, the “levels of myo-inositol, amino acids, organic acids (malate and lactate), pyrimidines (uracil and uridine), creatinine, hypoxanthine, putrescine” value ([1]; oTR 10 μM, 48 hours, vs untreated NSCLC cells) is reported as “decreased” and the “PC, PE, and PS species and Cer 18:1/22:0 levels” value ([1]; oTR-treated NSCLC cells) is reported as “increased”. The “levels of PG and PI species” value ([1]; oTR-treated NSCLC cells) was “decreased”, the IC50 [2] was 26.1 ± 2.47 µM and the “cleaved caspase-3” value ([3]; 50 μM oTR) was “significantly increased”. The “level of LC-III, an autophagy marker” value ([3]; FIG. 6C) was “did not change”, the “phosphorylated AKT (p-AKT)” value ([3]; oTR 48 hours) was “significantly decreased” and the “phosphorylated ERK1/2 (p-ERK)” value ([3]; oTR 48 hours) was “significantly decreased”. For the same compound, the IC50 [4] was 29.7 ± 2.56 µM.
